These results are taken from US20030134353A1, “Recombinant dimorphic fungal cell” (Bioteknologisk Institut, priority 2001, published 2003).

One test deals with M. circinelloides. Conditions: van Heeswijck et al., 1988; acid pH (3.2 or 4.5); cited from earlier work.
In the next test the test system is pkaR expression. In words: Northern blot analysis of pkaR expression during aerobic growth after dbcAMP addition. Format: cell-based, M. circinelloides. Conditions: for Total Counts (pkaR mRNA, background subtracted): aerobic growth. On the procedure: M. circinelloides syn. racemosus R7B (ATCC 90680), a leucine auxotrophic strain of ATCC1216b, was used as a recipient for transformation experiments and for expression studies. Cultures were grown at 28° C. in either YPG (Bartnicki-Garcia and Nickerson, 1962), YNB (Lasker and Borgia, 1980), Vogel's medium supplemented with 1.5 g glutamic acid per litre (Hoekstra, 1996) or SIV medium with 1.5 g glutamic acid per litre in place of L-aspargine (Eslava and Alvarez, 1996). Vogel's and SIV media were supplemented with 2 g casamino acids (Difco, Detroit, Mich., USA) per litre. All media were supplemented with 1 mg/L niacin amide and 1 mg/L thiamine chloride. When appropriate, 20 mg/L leucine was added to allow for the growth of strain R7B. For the analysis of pkaR expression, 5 mM dbcAMP (Sigma) was added to aerobic growing cultures during exponential growth. The BBL GasPak system (Becton Dickinson, Sparks, Md., USA) was used for anaerobic incubation of strains on solid medium. E. coli DH5α was used for DNA manipulations.
RNA isolation was carried out using a FastRNA kit (BIO101 Inc., CA, USA) and extraction with acid Phenol:chloroform (Sigma). For Northern blot analysis, total RNA was loaded onto formaldehyde containing agarose gel, subjected to electrophoresis, transferred to GeneScreen membrane (Du Pont) and hybridised as described (Arnau et al., 1996). Expression levels were meassured using a Cyclone Storage Phosphor System (Packard) and the OptiQuant image analysis software. A linear dynamic range of 5 orders of magnitude with only a 5% standard deviation is possible with the above apparatus. Dilution series of the RNA preparations (typically 20, 10 and 5 μg total RNA per sample) were used to estimate induction levels. Primer extension was carried out using a radioactively end-labelled primer; complementary to position 98-78 downstream of the pkaR ATG start codon. A sequence ladder was obtained using the same primer and pEUKA4-pkaR DNA as template using the Thermo Sequenase Radiolabeled Terminator Cycle Sequencing Kit (USB-Amersham). Probe labelling was performed using Ready-To-Go DNA Labelling Beads (Amersham Pharmacia Biotech). Unincorporated nucleotides were removed using a NICK column (Pharmacia).
In a complementary study, the expression of pkaR was followed during aerobic (filamentous) growth before and after the addition of dbcAMP. This cAMP analogue is membrane permeable and its addition results in PKA activation.

Test [1] has as its system Mucor circinelloides strain R7B. The experiment in a line: Screening of antibiotic sensitivity on YNB agar at pH 6.0. Conditions: YNB agar pH 6.0, 4 days at 28° C. Format: cell-based. On the procedure: Spores of Mucor circinelloides strain R7B were plated on to YNB agar pH 6.0 supplemented with leucine (upper left plate in all panels) or the same medium supplemented with 50, 100 or 250 μg/ml of the antibiotic (geneticin, kanamycin, hygromycin B or neomycin) as indicated in each panel. After 4 days at 28° C., plates were examined and photographed.
However, the conditions used for the above screening—especially the acid pH used (3.2 or 4.5)—may result in the inactivation of the antibiotic. Therefore, we performed an initial screening of antibiotic sensitivity using pH 6.0. Under these conditions, M. circinelloides is sensitive to all four antibiotic tested.

As for `CCCCNC(=O)n1c(NC(=O)OC)nc2ccccc21` [benomyl], the “Sensitivity of M. circinelloides to antibiotic as reported” value (“Sensitivity of M. circinelloides” for short) in the test with M. circinelloides is recorded as “insensitive”.
`CCCC(=O)Nc1ncnc2c1ncn2[C@@H]1O[C@@H]2COP(=O)(O)O[C@H]2[C@H]1OC(=O)CCC` [dbcAMP]: the “Total Counts (pkaR mRNA, background subtracted)” value is given as 951 with pkaR expression (15 min after addition of 5 mM dbcAMP); 1728 in the test on pkaR expression (30 min after addition of 5 mM dbcAMP); 2235 with pkaR expression (60 min after addition of 5 mM dbcAMP); 2392 in the test with pkaR expression (120 min after addition of 5 mM dbcAMP); 2966 with pkaR expression (180 min after addition of 5 mM dbcAMP). Further, the “Induction of pkaR expression compared to the level before dbcAMP addition” value in the test with pkaR expression (after three hours) is “sevenfold”.
For `CN[C@H]1C[C@@H](N)[C@H](O)[C@@H](O[C@@H]2O[C@H](CO)[C@H](O)[C@@H]3OC4(O[C@H]23)O[C@H]([C@@H](N)CO)[C@H](O)[C@H](O)[C@H]4O)[C@@H]1O` (some centres unmarked) [hygromycin B], the “Growth of M. circinelloides on antibiotic-supplemented plates” value is recorded as “tiny colonies” in test [1] (50 μg/ml antibiotic) and “no growth” in test [1] (100 μg/ml antibiotic).
For `CC[C@H]1/C=C/C=C/C[C@@H](C)[C@H](O)[C@@](C)(O)C(=O)[C@@H](C)[C@H](O)[C@@H](C)C(=O)[C@@H](C)[C@H](O)[C@@H](C)/C=C/C(=O)O[C@@H]2[C@H](C)[C@H](CC1)O[C@]1(CC[C@H](C)[C@H](C[C@@H](C)O)O1)[C@H]2C` [oligomycin], the “Sensitivity of M. circinelloides” value in the test with M. circinelloides was “insensitive”.
neomycin: the “Sensitivity of M. circinelloides” value in the test on M. circinelloides is on record as “insensitive”.
